Values after ≈ are worked out from the molar mass of the structure shown.
Key:
Aspergillus niger = assay: Broth dilution MIC / antimicrobial test against Aspergillus niger (A.T.C.C. 1015); type: cell-based; conditions: 25°
From the text: (§1) In testing for the anti-microbial activity five different types of organics were selected: Staphyloccoccus aureus, Escherichia coli, Pseudomonas aeruginosa, Candida albicans, and Aspergillus niger. The inclusion of Asperigillus niger and Pseudomonas aeruginosa in the inocula is recommended to ensure a wide range of protection because these ubiquitous organisms grow in a large variety of formulations and relatively resistant to antimicrobial agents. The incidence of contaminated cosmetics has been the subject of several investigations ^(6)(7). Pseudomonas was the predominant organism found.
(§2) One Gram-positive, two Gram-negative bacteria, one each of a yeast and a mold were selected for the test. These were, respectively, Staphylococcus aureus(A.T.C.C. 6538), Escherichia coli(A.T.C.C. 11229), Pseudomonas aeruginosa(A.T.C.C. 15442), Candida albicans(A.T.C.C. 10259), and Aspergillus niger(A.T.C.C. 1015).
(§3) Portions of four or five discrete colonies representative of the organisms to be tested were inoculated into 10.0 ml. of a suitable broth medium and marked accordingly. The inoculated tubes were incubated at 37° for S. aureus, E. coli, and P. aeruginosa, and at 25° for C. albicans and A. niger for 18-24 hours.
Medium: Trypticase Soy Agar(BBL) was used for bacteria, and Sabouraud Maltose Agar(BBL) for the yeast and the mold. […]

Candida albicans = assay: Broth dilution MIC / antimicrobial test against Candida albicans (A.T.C.C. 10259); type: cell-based; conditions: 25°
From the text: as §1, §2, §3
(§4) Medium: Trypticase Soy Agar(BBL) was used for bacteria, and Sabouraud Maltose Agar(BBL) for the yeast and the mold.
(§5) Inoculation of agar plates and incubation: A 10 cm. round plastic plate was used for the preparation of medium. Each plate was divided into four areas by marking on the bottom of the plate. The agar plate was streaked by the appropriate inoculation loop. Three thin loopful of inocula were applied for covering the complete agar plate. Approximately 10-15 mg. of compound to be tested was placed at the corresponding area of each inoculated plate. The plates inoculated with S. aureus, E. coli, and P. aeruginosa were incubated at 37° for 24-48 hours, and those incubated with C. albicans and A. niger were incubated at 25° for 48-72 hours. […]

Escherichia coli = assay: Broth dilution MIC / antimicrobial test against Escherichia coli (A.T.C.C. 11229); type: cell-based; conditions: 37°
From the text: as §1, §2, §3, §4, §5

Pseudomonas aeruginosa = assay: Broth dilution MIC / antimicrobial test against Pseudomonas aeruginosa (A.T.C.C. 15442); type: cell-based; conditions: 37°
From the text: as §1, §2, §3, §4, §5

Staphylococcus aureus = assay: Broth dilution MIC / antimicrobial test against Staphylococcus aureus (A.T.C.C. 6538); type: cell-based; conditions: for activity against S. aureus (in words): 37°
From the text: as §1, §2, §3, §4
Inoculation of agar plates and incubation: A 10 cm. round plastic plate was used for the preparation of medium. Each plate was divided into four areas by marking on the bottom of the plate. The agar plate was streaked by the appropriate inoculation loop. Three thin loopful of inocula were applied for covering the complete agar plate. Approximately 10-15 mg. of compound to be tested was placed at the corresponding area of each inoculated plate. The plates inoculated with S. aureus, E. coli, and P. aeruginosa were incubated at 37° for 24-48 hours, and those incubated with C. albicans and A. niger were incubated at 25° for 48-72 hours.
Interpretation and result: After incubation, if a zone of inhibition was visible around the compound placed, the susceptibility of the organism to the compound was considered to be positive. The degree of positiveness of the compound was decided by the size of the zone.
The broth dilution method was chosen for the determination of the MIC. A 10^-1 molar stock solution was prepared by dissolving or suspending the required amount of compound in the sterilized distilled water. The desired number of sterile test tubes were aseptically filled with 9.0 ml. of Trypticase Soy Broth(BBL). 1.0 ml. of the stock solution was added to the first tube and mixed thoroughly. With a sterile pipette, 1.0 ml. was transferred from the first tube to the second tube. […]

bacterial growth = assay: Preservative action in cosmetic formulations; conditions: for preservation against bacterial combination: Examples I and III of U.S. Pat. No. 3,957,970, replacing the 0.05% preservative by an equal amount
From the text: The compositions of this invention are of particular utility in aqueous cosmetic formulations to inhibit bacterial growth. Reference is hereby made to cosmetic formulations as disclosed in the following U.S. Pat. Nos.: (1) 4,159,318 (2) 4,164,564, (3) 4,137,302, (4) 4,148,875, (5) 4,001,141, (6) 4,048,338, (7) 3,919,430 and (8) 3,957,970 as exemplary of formulations with which the present thioureas and thiazoles can be used; thus, Example 4 of U.S. Pat. No. 4,137,302 discloses ethyl p-dimethylaminobenzoate (0.75%).
In Example 6 of U.S. Pat. No. 4,048,338, the 0.18 parts of methyl p-hydroxybenzoate is replaced by equal parts of the compound of Example 10 on the one hand and that of Example 12 on the other hand.
Each of the foregoing U.S. Patents (1) to (8) is hereby incorporated by reference thereto.

[1] = LD50 test (acute toxicity, intraperitoneal); type: in vivo, Charles River CD-1 male mice; conditions: 2000 mg/kg, one mouse
Method: The toxicity of some of the compounds was ascertained in an LD50 test.
The LD50 tests were performed for the following compounds; N-β-D-glucopyranosyl-N'-n-butylthiourea, N-β-D-glucopyranosyl-N'-benzylthiourea, N-β-D-glucopyranosyl-piperidine-1-thiocarboxamide, N-β-D-glucopyranosylthiourea, and ethyl 2-(N-β-D-glucopyranosyl)aminothiazole-4-carboxylate. The compounds were administered intraperitoneally dissolved or suspended in normal saline by 20-25 gm Charles River CD-1 male mice.
Two animals received 1000 mg/kg and one animal received 2000 mg/kg. With the exception of the animal given by ethyl 2-(N-β-D-glucopyranosyl)aminothiazole-4-carboxylate at 2000 mg/kg, all animals survived the acute effects and appeared normal after 1 week.

[2] = Example 6 of U.S. Pat. No. 4,048,338, replacing 0.18 parts of methyl p-hydroxybenzoate by equal parts

SMILES	activity against A. niger (in words) (Aspergillus niger)	activity against C. albicans (in words) (Candida albicans)	activity against E. coli (in words) (Escherichia coli)	activity against P. aeruginosa (in words) (Pseudomonas aeruginosa)	activity against S. aureus (in words) (Staphylococcus aureus)	MIC (Staphylococcus aureus; Staphylococcus aureus, S. aureus A.T.C.C. 6538, broth dilution, 24-48 hours at 37°, read-out: M.I.C. (Minimal Inhibitory Concentration)) [µM]	preservative action (bacterial growth; Example 4 of U.S. Pat. No. 4,137,302, in lieu of ethyl p-dimethylaminobenzoate (0.75%))	preservative action (bacterial growth; [2])	preservation against bacterial combination (bacterial growth)	death [1]
CCCCNC(=S)N[C@@H]1O[C@H](CO)[C@@H](O)[C@H](O)[C@H]1O [Example 2, N-β-D-Glucopyranosyl-N'-n-butylthiourea]	particularly outstanding activity	particularly outstanding activity								
OC[C@H]1O[C@@H](NC(=S)NCc2ccccc2)[C@H](O)[C@@H](O)[C@@H]1O [Example 5, N-β-D-Glucopyranosyl-N'-benzylthiourea]			particularly outstanding activity	particularly outstanding activity						
OC[C@H]1O[C@@H](NC(=S)N2CCCCC2)[C@H](O)[C@@H](O)[C@@H]1O [Example 11, N-β-D-Glucopyranosylpiperidine-1-thiocarboxamide]				particularly outstanding activity						
C=CCNC(=S)N[C@@H]1O[C@H](CO)[C@@H](O)[C@H](O)[C@H]1O [Example 10, N-β-D-Glucopyranosyl-N'-allylthiourea]					particularly outstanding activity	100 (≈ 27.8 µg/mL)	excellent preservative action	excellent preservative action	excellent preservation against bacterial combination	
Br.CCOC(=O)c1csc(N[C@@H]2O[C@H](CO)[C@@H](O)[C@H](O)[C@H]2O)n1 [Example 15, Ethyl 2-(N-β-D-glucopyranosyl)aminothiazole-4-carboxylate hydrobromide]	not against A. Niger	broad activities against 4 organisms	broad activities against 4 organisms	broad activities against 4 organisms	broad activities against 4 organisms				excellent preservation against bacterial combination	dying two days later
OC[C@H]1O[C@@H](NC(=S)NCc2ccc(Cl)cc2)[C@H](O)[C@@H](O)[C@@H]1O [Example 12, N-β-D-Glucopyranosyl-N'-4-chlorobenzylthiourea]		broad inhibitory activities	broad inhibitory activities		broad inhibitory activities			excellent preservative action	excellent preservation against bacterial combination	
